ChEMBL document CHEMBL1201862, “PubChem BioAssay data set” (2004)
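96-well plates; 48 h exposure; 5 concentrations. Endpoints by linear interpolation between flanking doses. Not reached: highest tested concentration assigned. GI50: concentration for 50% inhibition of growth.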 Calls of active or inactive are those of the source. Rule as the data show it: active = GI50 up to about 1.1 µM and inactive = higher.

Assays:
Experiment in all cases: growth of human tumour cells (NCI), 48 h
SF-295 = tested on: SF-295
NCI-H460 = tested on: NCI-H460
SNB-19 = tested on: SNB-19
MCF7 = tested on: MCF7
A498 = tested on: A498
U-251 = tested on: U-251
T47D = tested on: T47D
UACC-257 = tested on: UACC-257
TK-10 = tested on: TK-10
Malme-3M = tested on: Malme-3M
OVCAR-5 = tested on: OVCAR-5
HCT-15 = tested on: HCT-15
OVCAR-3 = tested on: OVCAR-3
SK-MEL-5 = tested on: SK-MEL-5
Hs-578T = tested on: Hs-578T
KM12 = tested on: KM12
DU-145 = tested on: DU-145
HCT-116 = tested on: HCT-116
SK-MEL-2 = tested on: SK-MEL-2
MDA-MB-231 = tested on: MDA-MB-231

Measured: GI50

COc1cc(COC(=O)N2CC=CC2C(=O)O)c([N+](=O)[O-])cc1OC (centres undefined)
> 100 µM: HCT-15
inactive: SF-295 > 100 µM | NCI-H460 > 100 µM | SNB-19 > 100 µM | MCF7 > 100 µM | A498 > 100 µM | U-251 > 100 µM | T47D > 100 µM | UACC-257 > 100 µM | TK-10 > 100 µM | Malme-3M > 100 µM | OVCAR-5 > 100 µM | OVCAR-3 > 100 µM | SK-MEL-5 > 100 µM | Hs-578T > 100 µM | KM12 > 100 µM | DU-145 > 100 µM | HCT-116 > 100 µM

N#CCSc1c(-c2ccccc2)c(=O)n(-c2ccccc2)c(=S)n1-c1ccccc1
> 100 µM: HCT-15
inactive: SF-295 > 100 µM | NCI-H460 > 100 µM | SNB-19 > 100 µM | MCF7 > 100 µM | U-251 > 100 µM | T47D > 100 µM | UACC-257 > 100 µM | SK-MEL-2 > 100 µM | TK-10 > 100 µM | Malme-3M > 100 µM | OVCAR-5 > 100 µM | OVCAR-3 > 100 µM | SK-MEL-5 84.5 µM | Hs-578T 51.5 µM | KM12 > 100 µM | DU-145 > 10 µM | HCT-116 > 100 µM

N#CC(=S)Nc1ccc(Cl)c(Cl)c1
27.2 µM: HCT-15
inactive: SF-295 22.5 µM | SNB-19 43.8 µM | MCF7 35.5 µM | A498 32.7 µM | U-251 23.2 µM | T47D 27.1 µM | MDA-MB-231 26.7 µM | UACC-257 28.2 µM | SK-MEL-2 27.7 µM | TK-10 26.5 µM | Malme-3M 28.1 µM | OVCAR-5 16.4 µM | OVCAR-3 20.5 µM | SK-MEL-5 22.2 µM | KM12 26.9 µM | DU-145 45.6 µM | HCT-116 28.8 µM

CS(=O)(=O)O[C@H]1CN2C[C@@H](O)[C@@H](O)[C@H]2[C@H]1CO.[B]
inactive: SF-295 > 100 µM | NCI-H460 > 100 µM | SNB-19 > 100 µM | MCF7 > 100 µM | A498 > 100 µM | U-251 > 100 µM | T47D > 100 µM | MDA-MB-231 > 100 µM | UACC-257 > 100 µM | SK-MEL-2 > 100 µM | TK-10 > 100 µM | Malme-3M > 100 µM | OVCAR-5 > 100 µM | OVCAR-3 > 100 µM | SK-MEL-5 > 100 µM | KM12 > 100 µM | DU-145 > 100 µM | HCT-116 > 100 µM
> 100 µM: HCT-15

COC(=O)[C@]1(C)CCCC2(C)C3=C(CCC21)CC1(CC3)SCCS1 (some centres undefined)
inactive: SNB-19 > 10 µM | MCF7 > 10 µM | A498 > 10 µM | U-251 > 10 µM | T47D > 10 µM | MDA-MB-231 > 10 µM | UACC-257 > 10 µM | TK-10 > 10 µM | Malme-3M > 10 µM | OVCAR-3 > 10 µM | SK-MEL-5 > 10 µM | Hs-578T > 10 µM | KM12 > 10 µM | DU-145 > 10 µM | HCT-116 > 10 µM
> 10 µM: HCT-15

CC(=O)OC12c3ccccc3C(c3ccccc31)C1C(=O)N(c3ccccc3O)C(=O)C12 (centres undefined)
inactive: SF-295 80.2 µM | NCI-H460 > 100 µM | SNB-19 84.9 µM | MCF7 > 100 µM | A498 90.2 µM | U-251 > 100 µM | T47D > 100 µM | MDA-MB-231 > 100 µM | UACC-257 > 100 µM | TK-10 > 100 µM | Malme-3M 90.4 µM | OVCAR-5 > 100 µM | OVCAR-3 90.8 µM | SK-MEL-5 > 100 µM | Hs-578T > 100 µM | KM12 92.7 µM | DU-145 > 100 µM | HCT-116 > 100 µM
> 100 µM: HCT-15

CC(=O)NC(Cc1c[nH]cn1)C(=O)N1CCCC1C(N)=O (centres undefined)
inactive: SF-295 > 100 µM | NCI-H460 > 100 µM | SNB-19 > 100 µM | MCF7 > 100 µM | U-251 > 100 µM | T47D > 100 µM | MDA-MB-231 > 100 µM | TK-10 > 100 µM | Malme-3M > 100 µM | OVCAR-5 > 100 µM | OVCAR-3 > 100 µM | SK-MEL-5 > 100 µM | Hs-578T > 100 µM | KM12 > 100 µM | DU-145 > 100 µM | HCT-116 > 100 µM
> 100 µM: HCT-15

Cn1[nH]nn/c1=N\N=C\c1ccccc1
inactive: SF-295 > 10 µM | NCI-H460 > 10 µM | SNB-19 > 10 µM | MCF7 > 10 µM | U-251 > 10 µM | T47D > 10 µM | MDA-MB-231 > 10 µM | UACC-257 > 10 µM | SK-MEL-2 > 10 µM | TK-10 > 10 µM | OVCAR-5 > 10 µM | OVCAR-3 > 10 µM | SK-MEL-5 > 10 µM | Hs-578T > 10 µM | KM12 > 10 µM | DU-145 > 10 µM | HCT-116 > 10 µM
> 10 µM: HCT-15

COC(=O)/C=C(\C)C(=O)N(C)c1ccccc1I
> 100 µM: HCT-15
inactive: SF-295 > 100 µM | NCI-H460 > 100 µM | SNB-19 > 100 µM | MCF7 > 100 µM | A498 > 100 µM | U-251 > 100 µM | T47D > 100 µM | MDA-MB-231 > 100 µM | UACC-257 > 100 µM | SK-MEL-2 > 100 µM | Malme-3M > 100 µM | OVCAR-5 > 100 µM | OVCAR-3 > 100 µM | SK-MEL-5 > 100 µM | KM12 > 100 µM | DU-145 > 100 µM | HCT-116 > 100 µM

Cc1cc(NC(=O)NC(=O)c2ccccc2[N+](=O)[O-])ccc1Oc1ncc(Cl)cn1
0.113 µM: HCT-15
inactive: T47D 34.1 µM | TK-10 19.8 µM | OVCAR-5 16.5 µM | DU-145 1.81 µM
active: SF-295 0.0598 µM | NCI-H460 0.0548 µM | SNB-19 0.212 µM | MCF7 0.037 µM | A498 0.0604 µM | U-251 0.0916 µM | MDA-MB-231 0.664 µM | UACC-257 0.0431 µM | Malme-3M 0.0231 µM | OVCAR-3 0.0361 µM | SK-MEL-5 0.0362 µM | Hs-578T 0.0257 µM | KM12 0.0519 µM | HCT-116 0.082 µM

COC(=O)[C@@H]1CN(C(C)=O)C(=O)N1
> 100 µM: HCT-15
inactive: SF-295 > 100 µM | NCI-H460 > 100 µM | SNB-19 > 100 µM | A498 > 100 µM | U-251 > 100 µM | T47D 43.9 µM | MDA-MB-231 5.06 µM | UACC-257 > 100 µM | SK-MEL-2 > 100 µM | TK-10 > 100 µM | Malme-3M > 100 µM | OVCAR-5 > 100 µM | OVCAR-3 > 100 µM | SK-MEL-5 > 100 µM | Hs-578T > 100 µM | KM12 > 100 µM | DU-145 > 100 µM | HCT-116 > 100 µM

O=c1c2ccccc2[nH]c2c(Cl)cc(Cl)c(N3CCCCC3)c12
inactive: SF-295 32.4 µM | SNB-19 34.6 µM | MCF7 20.7 µM | A498 28.3 µM | U-251 24.4 µM | T47D 50.6 µM | MDA-MB-231 33.6 µM | UACC-257 39.1 µM | SK-MEL-2 21.7 µM | TK-10 39.7 µM | OVCAR-5 34.5 µM | OVCAR-3 31.1 µM | SK-MEL-5 34.3 µM | KM12 19.1 µM | HCT-116 46.3 µM
44.8 µM: HCT-15

COC1OC(C)C(NC(=O)OCC(Cl)(Cl)Cl)C2OC(C)(C)OC12 (centres undefined)
inactive: SF-295 > 100 µM | NCI-H460 > 100 µM | SNB-19 > 100 µM | MCF7 > 100 µM | A498 > 100 µM | U-251 > 100 µM | T47D > 100 µM | MDA-MB-231 > 100 µM | UACC-257 > 100 µM | TK-10 > 100 µM | Malme-3M > 100 µM | OVCAR-5 > 100 µM | OVCAR-3 > 100 µM | SK-MEL-5 > 100 µM | Hs-578T > 100 µM | KM12 > 100 µM | DU-145 > 100 µM | HCT-116 > 100 µM
> 100 µM: HCT-15

N=C(N)c1ccc(/N=N\c2c(O)ccc3cc4c(/N=N\c5ccc(C(=N)N)cc5)c(O)ccc4cc23)cc1
56 µM: HCT-15
inactive: SF-295 50.8 µM | NCI-H460 40.7 µM | SNB-19 > 100 µM | MCF7 87.9 µM | U-251 51.1 µM | T47D 96.8 µM | MDA-MB-231 29 µM | UACC-257 > 100 µM | SK-MEL-2 > 100 µM | TK-10 > 100 µM | Malme-3M > 100 µM | OVCAR-5 > 100 µM | OVCAR-3 > 100 µM | SK-MEL-5 51.6 µM | Hs-578T > 100 µM | KM12 > 100 µM | DU-145 > 100 µM | HCT-116 50 µM

CSc1nc(Nc2ccccc2Cl)c2c(N)nn(C)c2n1
inactive: SF-295 > 100 µM | NCI-H460 9.51 µM | SNB-19 > 100 µM | A498 > 100 µM | U-251 > 100 µM | T47D 18.7 µM | MDA-MB-231 28.3 µM | UACC-257 > 100 µM | SK-MEL-2 > 100 µM | TK-10 > 100 µM | Malme-3M > 100 µM | OVCAR-5 > 100 µM | OVCAR-3 > 100 µM | SK-MEL-5 > 100 µM | Hs-578T 17 µM | KM12 > 100 µM | DU-145 > 100 µM | HCT-116 > 100 µM
> 100 µM: HCT-15

c1ccc2c(c1)CC1COc3ccccc3C1O2 (centres undefined)
inactive: SF-295 64.4 µM | MCF7 45.2 µM | A498 > 100 µM | U-251 54.3 µM | T47D 51.4 µM | MDA-MB-231 47.4 µM | UACC-257 38.8 µM | SK-MEL-2 44.6 µM | TK-10 95.5 µM | Malme-3M > 100 µM | OVCAR-5 > 100 µM | OVCAR-3 67.8 µM | SK-MEL-5 17.4 µM | KM12 44.2 µM | DU-145 > 100 µM | HCT-116 45.8 µM
40.2 µM: HCT-15
